Assay results taken from patent US20250388605A1, “HETEROBIFUNCTIONAL COMPOUNDS AND METHODS OF TREATING DISEASE” (Halda Therapeutics OpCo, Inc., priority 2022, published 2025).

Tests used:
[1] = test system: T-Rex 293 cell line SC3 cells having increased expression of androgen receptor protein due to exposure to doxycycline; test: Cellular growth inhibition, T-Rex 293 SC3 cells with doxycycline (increased androgen receptor expression), CellTiter-Glo; assay type: cell-based; details: T-Rex 293 SC3 cells with 10 ng/mL doxycycline (increased androgen receptor expression), 72 hours, CellTiter-Glo 2.0
In short: (§1)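 Growth inhibition is measured in an inducible AR-expressing T-Rex 293 clone, SC3, cultured with or without 10 ng/mL doxycycline in hormone-depleted medium. Test compounds are applied for 72 hours. GI50 values derive from CellTiter-Glo 2.0 signal fitted by four-parameter regression.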

androgen receptor = molecular target: T1, androgen receptor (Homo sapiens, UniProt P10275); test: Assay for binding affinity to androgen receptor ([3H]methyltrienolone radioligand competition, cell cytosol); details: binding to the androgen receptor, 1 nM [3H]methyltrienolone, 24 hr at 4° C.
T1 construct: host or cells: unnamed cells, cytosolic fraction
T1 sequence (P10275 1-920): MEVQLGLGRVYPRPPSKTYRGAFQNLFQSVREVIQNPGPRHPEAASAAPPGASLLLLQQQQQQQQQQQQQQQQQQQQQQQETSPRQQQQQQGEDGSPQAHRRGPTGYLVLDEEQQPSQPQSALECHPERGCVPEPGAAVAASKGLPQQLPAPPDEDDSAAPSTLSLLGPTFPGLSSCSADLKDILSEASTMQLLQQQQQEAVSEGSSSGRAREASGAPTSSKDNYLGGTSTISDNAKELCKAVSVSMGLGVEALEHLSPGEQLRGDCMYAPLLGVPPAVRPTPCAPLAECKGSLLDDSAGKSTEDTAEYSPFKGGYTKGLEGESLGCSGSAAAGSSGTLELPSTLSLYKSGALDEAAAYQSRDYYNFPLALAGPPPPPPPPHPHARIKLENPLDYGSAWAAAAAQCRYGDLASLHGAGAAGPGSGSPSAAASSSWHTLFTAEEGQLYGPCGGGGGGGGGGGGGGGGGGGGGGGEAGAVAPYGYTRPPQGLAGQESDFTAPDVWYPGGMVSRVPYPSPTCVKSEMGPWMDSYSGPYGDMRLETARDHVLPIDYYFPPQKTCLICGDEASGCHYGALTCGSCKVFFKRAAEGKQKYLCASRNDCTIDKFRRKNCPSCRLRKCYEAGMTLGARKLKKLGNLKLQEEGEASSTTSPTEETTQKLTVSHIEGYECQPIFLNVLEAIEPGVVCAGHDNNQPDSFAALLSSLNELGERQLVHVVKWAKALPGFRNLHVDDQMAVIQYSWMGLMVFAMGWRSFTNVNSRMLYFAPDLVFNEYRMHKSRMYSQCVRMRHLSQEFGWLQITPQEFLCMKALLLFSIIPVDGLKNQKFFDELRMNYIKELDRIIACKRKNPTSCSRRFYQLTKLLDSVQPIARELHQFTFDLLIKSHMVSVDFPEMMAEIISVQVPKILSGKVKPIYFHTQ
Protocol: Fractions of cell cytosol ([…]) were incubated for 24 hr at 4° C. with 1 nM [^3H]methyltrienolone in the absence or presence of the test compound in a buffer containing 25 mM Hepes-Tris (pH 7.4), 1 mM EDTA, 10 mM Na2MoO4, 2 mM DTT, 5 μM triamcinolone acetonide, and 10% glycerol. Nonspecific binding was determined in the presence of […] testosterone. Following incubation, the samples were filtered rapidly under vacuum through glass fiber filters (GF/B, Packard) presoaked with 0.3% PEI and rinsed several times with ice-cold 50 mM Tris-HCl using a 96-sample cell harvester (Unifilter, Packard). The filters were dried then counted for radioactivity in a scintillation counter (Topcount, Packard) using a scintillation cocktail (Microscint 0, Packard). The results are expressed as a percent inhibition of the control radioligand specific binding. The standard reference compound is testosterone, which is tested in each experiment at several concentrations to obtain a competition curve from which its IC50 is calculated.

[2] = test system: T-Rex 293 cell line SC3 cells lacking increased expression of androgen receptor protein; test: Cellular growth inhibition, T-Rex 293 SC3 cells without doxycycline (no increased androgen receptor expression), CellTiter-Glo; assay type: cell-based; details: T-Rex 293 SC3 cells not exposed to doxycycline (no increased androgen receptor expression), 72 hours
In short: as §1

VCaP cells = test: Cellular growth inhibition assay for VCaP cells, CellTiter-Glo; assay type: cell-based, human; details: 72 hours
In short: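 GI50 values come from four-parameter curve fits of luminescence data normalized to a zero baseline. Compound, in medium with 0.5% DMSO, was added one day after plating and left for 72 h before CellTiter-Glo 2.0 addition.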

T47D cells = test: Cellular Growth Inhibition Assay for T47D Cells (CellTiter-Glo); assay type: cell-based, human; details: 72 hours
In short: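 GI50 values derive from four-parameter regression of CellTiter-Glo 2.0 luminescence, using zero luminescence as baseline. Human breast cancer T47D cells (3000/well; DMEM, 10% FBS, 0.2 units/mL insulin) were exposed for 72 h to compound dilutions at 0.5% DMSO, with dosing starting 24 h after seeding.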

[3] = molecular target: T2, progesterone receptor ligand binding domain (GST-tagged PR LBD) (Homo sapiens, UniProt P06401); test: FP Assay for Binding Affinity to Progesterone Receptor (PolarScreen Progesterone Receptor Competitor Assay Kit); details: fluorescence polarization, Fluormone tracer, 2 hours at room temperature
T2 construct: purchased Life Technologies A15905 or a15906
T2 sequence (P06401 679-913 limits assumed): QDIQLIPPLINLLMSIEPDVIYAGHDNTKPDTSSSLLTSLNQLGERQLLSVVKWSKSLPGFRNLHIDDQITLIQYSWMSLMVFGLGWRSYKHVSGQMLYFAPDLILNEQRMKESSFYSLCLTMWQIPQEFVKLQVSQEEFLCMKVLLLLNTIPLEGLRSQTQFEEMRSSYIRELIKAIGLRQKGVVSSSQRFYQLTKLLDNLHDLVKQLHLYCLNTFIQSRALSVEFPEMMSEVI
Protocol: Exemplary compounds were tested for ability to bind to the progesterone receptor ligand binding domain (LBD).
Compounds were tested using the PolarScreen™ Progesterone Receptor Competitor Assay Kit (Life Technologies Cat #A15905 or a15906), as per the manufacturer's instructions. Briefly, GST-tagged PR LBD, Fluormone tracer, and compound were mixed and incubated for 2 hours at room temperature in the dark. Following incubation, the plates were spun at 3000×g for 30 seconds, then sealed with an optical adhesive cover, and fluorescence polarization was measured using appropriate excitation and emission filters with an EnVision Plate Reader (Perkin Elmer). Compound concentration vs. mP value were plotted in Prism (GraphPad). A four-parameter non-linear regression curve fit was applied to dose-response data to determine the half-maximal inhibitory concentration (IC50) for each test compound.

SMILES | Ki (androgen receptor) [nM] | GI50 (VCaP cells; Homo sapiens) [nM] | GI50 (T47D cells; Homo sapiens) [nM] | IC50 [3] [nM] | GI50 (T47D cells) [nM] | GI50 (VCaP cells) [nM] | GI50 [1] [nM] | GI50 [2] [nM]
CCS(=O)(=O)Nc1ccc(Oc2cccc(OCCOC3CCN(c4ccc(C(=O)N[C@H]5C(C)(C)[C@H](Oc6ccc(C#N)c(Cl)c6)C5(C)C)cc4)CC3)c2)c(-c2cn(C)c(=O)c3[nH]ccc23)c1 [Compound I-69, N-((1r, 3r)-3-(3-chloro-4-cyanophenoxy)-2,2,4,4-tetramethylcyclobutyl)-4-(4-(2-(3-(4-(ethylsulfonamido)-2-(6-methyl-7-oxo-6,7-dihydro-1H-pyrrolo[2,3-c]pyridin-4-yl)phenoxy)phenoxy)ethoxy)piperidin-1-yl)benzamide] | < 50 | < 500 |  |  |  |  | < 500 | < 500
CCS(=O)(=O)Nc1ccc(Oc2cccc(OCCOC3CCN(c4ccc(C(=O)N[C@H]5C(C)(C)[C@H](Oc6ccc(C#N)c(Cl)c6)C5(C)C)nc4)CC3)c2)c(-c2cn(C)c(=O)c3[nH]ccc23)c1 [Compound I-72, N-((1r, 3r)-3-(3-chloro-4-cyanophenoxy)-2,2,4,4-tetramethylcyclobutyl)-5-(4-(2-(3-(4-(ethylsulfonamido)-2-(6-methyl-7-oxo-6,7-dihydro-1H-pyrrolo[2,3-c]pyridin-4-yl)phenoxy)phenoxy)ethoxy)piperidin-1-yl)picolinamide] | 50 to 500 | < 500 |  |  |  |  | < 500 | < 500
CCS(=O)(=O)Nc1ccc(Oc2cccc(OCCOC3CCN(c4cnc(C(=O)N[C@H]5C(C)(C)[C@H](Oc6ccc(C#N)c(Cl)c6)C5(C)C)nc4)CC3)c2)c(-c2cn(C)c(=O)c3[nH]ccc23)c1 [Compound I-73, N-((1r, 3r)-3-(3-chloro-4-cyanophenoxy)-2,2,4,4-tetramethylcyclobutyl)-5-(4-(2-(3-(4-(ethylsulfonamido)-2-(6-methyl-7-oxo-6,7-dihydro-1H-pyrrolo[2,3-c]pyridin-4-yl)phenoxy)phenoxy)ethoxy)piperidin-1-yl)pyrimidine-2-carboxamide] | 50 to 500 | < 500 |  |  |  |  | < 500 | < 500
CCS(=O)(=O)c1ccc(Oc2cccc(CCCOC3CC4(C3)CN(c3ccc(C(=O)N[C@H]5C(C)(C)[C@H](Oc6ccc(C#N)c(Cl)c6)C5(C)C)cn3)C4)c2F)c(-c2cn(C)c(=O)c3[nH]ccc23)c1 [Compound I-215] |  | < 500 | < 500 | > 2500 |  |  | < 500 | < 500
CN(CCCCc1ccc(Oc2ccc(C(C)(C)O)cc2-c2cn(C)c(=O)c3[nH]ccc23)cc1)c1ncc(C(=O)N[C@H]2C(C)(C)[C@H](Oc3ccc(C#N)c(Cl)c3)C2(C)C)cn1 [Compound I-218] |  | 1500 to 3000 | 500 to 1500 | 50 to 500 |  |  | < 500 | 1500 to 3000
Cn1cc(-c2cc(C(C)(C)O)ccc2Oc2cccc(OCCN3CCC34CN(c3ncc(C(=O)N[C@H]5C(C)(C)[C@H](Oc6ccc(C#N)c(Cl)c6)C5(C)C)cn3)C4)c2F)c2cc[nH]c2c1=O [Compound I-222] |  | < 500 | 500 to 1500 | 500 to 2500 |  |  | < 500 | 500 to 1500
CC(C)N(CCOc1cccc(Oc2ccc(C(C)(C)O)cc2-c2cn(C)c(=O)c3[nH]ccc23)c1F)C1CCN(c2ncc(C(=O)N[C@H]3C(C)(C)[C@H](Oc4ccc(C#N)c(Cl)c4)C3(C)C)cn2)CC1 [Compound I-224] |  | < 500 | < 500 | 50 to 500 |  |  | < 500 | < 500
Cn1cc(-c2cc(C(C)(C)O)ccc2Oc2cccc(OCCN3CC4(C3)CN(c3ncc(C(=O)N[C@H]5C(C)(C)[C@H](Oc6ccc(C#N)c(Cl)c6)C5(C)C)cn3)C4)c2F)c2cc[nH]c2c1=O [Compound I-229] |  |  |  | 50 to 500 | < 500 | < 500 | < 500 | 500 to 1500
Cn1cc(-c2cc(C(C)(C)O)ccc2Oc2ccc(OCC3CCN(c4ncc5c(n4)CN([C@H]4C(C)(C)[C@H](Oc6ccc(C#N)c(Cl)c6)C4(C)C)C5=O)CC3)cc2)c2cc[nH]c2c1=O [Compound I-233] |  | < 500 | 500 to 1500 | > 2500 |  |  | 500 to 1500 | > 3000
CCS(=O)(=O)c1ccc(Oc2cccc(CCCC3CCN(c4ncc(C(=O)N[C@H]5C(C)(C)[C@H](Oc6ccc(C#N)c(Cl)c6)C5(C)C)cn4)CC3)c2F)c(-c2cn(C)c(=O)c3[nH]ccc23)c1 [Compound I-245] |  |  |  | 500 to 2500 | < 500 | 500 to 1500 | < 500 | > 3000

Further lines, with some results ahead:

Ki (androgen receptor) [nM] | GI50 (VCaP cells; Homo sapiens) [nM] | GI50 (T47D cells; Homo sapiens) [nM] | IC50 [3] [nM] | GI50 (T47D cells) [nM] | GI50 (VCaP cells) [nM] | SMILES | GI50 [1] [nM] | GI50 [2] [nM]
 | < 500 | < 500 | 50 to 500 |  |  | CCS(=O)(=O)Nc1ccc(Oc2cccc(N(C)CCNC3CCN(c4ncc(C(=O)N[C@H]5C(C)(C)[C@H](Oc6ccc(C#N)c(Cl)c6)C5(C)C)cn4)CC3)c2)c(-c2cn(C)c(=O)c3[nH]ccc23)c1 [Compound I-83] | < 500 | > 3000
 |  |  | < 50 | < 500 | < 500 | Cn1cc(-c2cc(C(C)(C)O)ccc2Oc2ccc(F)c(OCCC3CC4(C3)CN(c3ncc(C(=O)N[C@H]5C(C)(C)[C@H](Oc6ccc(C#N)c(Cl)c6)C5(C)C)cn3)C4)c2F)c2cc[nH]c2c1=O [Compound I-225] | < 500 | < 500
 |  |  | < 50 | > 3000 | 500 to 1500 | CC(C)N(CCN(C)C1CCN(c2ncc(C(=O)N[C@H]3C(C)(C)[C@H](Oc4ccc(C#N)c(Cl)c4)C3(C)C)cn2)CC1)c1cccc(Oc2ccc(C(C)(C)O)cc2-c2cn(C)c(=O)c3[nH]ccc23)c1F [Compound I-226] | < 500 | 500 to 1500
 |  |  | < 50 | < 500 | < 500 | Cn1cc(-c2cc(C(C)(C)O)ccc2Oc2cccc(OCCN3CCN(c4ncc5c(n4)CN([C@H]4C(C)(C)[C@H](Oc6ccc(C#N)c(Cl)c6)C4(C)C)C5=O)CC3)c2F)c2cc[nH]c2c1=O [Compound I-227] | < 500 | < 500
